# Results reported in patent US6949669B2, “Organic compounds” (Syngenta Crop Protection, Inc., priority 2000, dated 2005).
# Key:
# Type in all cases: in vivo
# Amaranthus [1] = assay: Pre-emergence herbicidal action (Example B1); design: key: 1=total damage; 9=no action; settings: 1 kg/ha, evaluated 4 weeks later, rating scale 1-9 (1=total damage, 9=no action)
# Procedure: (§1) Pre-emergence Herbicidal Action Monocot and dicot test plants are sown in standard soil in plastic pots. Immediately after sowing, the test substances are sprayed on as an aqueous suspension [prepared from a wettable powder (Example F3, b) of WO 97/34485)] or as an emulsion [prepared from an emulsion concentrate (Example F1 c) of WO 97/34485)] in an optimal dosage (500 l of water/ha). The test plants are then cultivated in the greenhouse under optimum conditions. The test is evaluated 4 weeks later on a rating scale of 1-9 (1=total damage, 9=no action). Ratings of 1 to 4 (especially 1 to 3) denote good to very good herbicidal action.
# Chenopodium [2] = assay: Pre-emergence herbicidal action (Example B1); design: key: 1=total damage; 9=no action; settings: 1 kg/ha, evaluated 4 weeks later, rating scale 1-9 (1=total damage, 9=no action)
# Procedure: as §1
# Digitaria = assay: Pre-emergence herbicidal action (Example B1); design: key: 1=total damage; 9=no action; settings: 1 kg/ha, evaluated 4 weeks later, rating scale 1-9 (1=total damage, 9=no action)
# Procedure: as §1
# Panicum = assay: Pre-emergence herbicidal action (Example B1); design: key: 1=total damage; 9=no action; settings: 1 kg/ha, evaluated 4 weeks later, rating scale 1-9 (1=total damage, 9=no action)
# Procedure: as §1
# Setaria = assay: Pre-emergence herbicidal action (Example B1); design: key: 1=total damage; 9=no action; settings: 1 kg/ha, evaluated 4 weeks later, rating scale 1-9 (1=total damage, 9=no action)
# Procedure: as §1
# Stellaria [3] = assay: Pre-emergence herbicidal action (Example B1); design: key: 1=total damage; 9=no action; settings: 1 kg/ha, evaluated 4 weeks later, rating scale 1-9 (1=total damage, 9=no action)
# Procedure: as §1
# Veronica = assay: Pre-emergence herbicidal action (Example B1); design: key: 1=total damage; 9=no action; settings: 1 kg/ha, evaluated 4 weeks later, rating scale 1-9 (1=total damage, 9=no action)
# Procedure: as §1
# Amaranthus [4] = assay: Post-emergence herbicidal action (Example B2); design: key: 1=total damage; 9=no action; settings: 1 kg/ha, post-emergence at 2- to 3-leaf stage, evaluated 2 to 3 weeks later, rating scale 1-9 (1=total damage, 9=no action)
# Text: as §1, with “Post-emergence Herbicidal” for “Pre-emergence Herbicidal”, “pots. At the 2- to 3-leaf stage,” for “pots. Immediately after sowing,”, “test plants” for “test substances”, “sprayed with test substances” for “sprayed on”, “evaluated 2 to 3” for “evaluated 4”
# Chenopodium [5] = assay: Post-emergence herbicidal action (Example B2); design: key: 1=total damage; 9=no action; settings: 1 kg/ha, post-emergence at 2- to 3-leaf stage, evaluated 2 to 3 weeks later, rating scale 1-9 (1=total damage, 9=no action)
# Text: as §1, with “Post-emergence Herbicidal” for “Pre-emergence Herbicidal”, “pots. At the 2- to 3-leaf stage,” for “pots. Immediately after sowing,”, “test plants” for “test substances”, “sprayed with test substances” for “sprayed on”, “evaluated 2 to 3” for “evaluated 4”
# Stellaria [6] = assay: Post-emergence herbicidal action (Example B2); settings: 1 kg/ha, post-emergence at 2- to 3-leaf stage, evaluated 2 to 3 weeks later, rating scale 1-9 (1=total damage, 9=no action)
# Text: as §1, with “Post-emergence Herbicidal” for “Pre-emergence Herbicidal”, “pots. At the 2- to 3-leaf stage,” for “pots. Immediately after sowing,”, “test plants” for “test substances”, “sprayed with test substances” for “sprayed on”, “evaluated 2 to 3” for “evaluated 4”
SMILES,"Preemergence test rating, Amaranthus (Amaranthus [1])","Preemergence test rating, Chenopodium (Chenopodium [2])","Preemergence test rating, Digitaria (Digitaria)","Preemergence test rating, Panicum (Panicum)","Preemergence test rating, Setaria (Setaria)","Preemergence test rating, Stellaria (Stellaria [3])","Preemergence test rating, Veronica (Veronica)","Postemergence test rating, Amaranthus (Amaranthus [4])","Postemergence test rating, Chenopodium (Chenopodium [5])","Postemergence test rating, Stellaria (Stellaria [6])"
COc1ccccc1OCC#Cc1cccc(CC#N)c1 [Compound 1.033],1,1,1,2,2,1,1,4,2,2
COc1cc(C#N)ccc1OCC#Cc1ccc(Cl)cc1 [Compound 1.098],1,1,3,1,1,1,1,1,1,2
COc1cc(C#N)ccc1OCC#Cc1cccc(Br)c1 [Compound 1.104],1,1,7,7,4,1,1,2,2,3
COc1cc(C#N)ccc1OCC#Cc1cccc(CC#N)c1 [Compound 1.109],1,1,1,1,6,1,1,1,4,2
COc1cc(CC#N)ccc1OCC#Cc1cccc(CC#N)c1 [Compound 1.168],1,2,3,1,4,1,4,–,–,–
COc1cc([N+](=O)[O-])ccc1OCC#Cc1cccc(CC#N)c1 [Compound 1.198],1,1,1,1,3,1,1,1,1,3
COc1cc(C#N)ccc1OCC#Cc1cccc(Cl)c1 [Entry 1.095],–,–,–,–,–,–,–,1,2,2
